Measured values reported in article PMC12365235, “Molecular mechanisms of thiazide-like diuretics-mediated inhibition of the human Na-Cl cotransporter” (Nature Communications, 2025).

What was measured:
hNCC(G230A) = target: T1, hNCC(G230A) (Homo sapiens, UniProt P55017, G230A); experiment: 125I- uptake assay, hNCC(G230A) variant; assay type: cell-based; conditions: for fold less sensitive than hNCC(WT) / IC50: G230A substitution; for IC50: iodide uptake
T1 construct: expressed in transfected cells
T1 sequence (P55017 1-1021 G230A): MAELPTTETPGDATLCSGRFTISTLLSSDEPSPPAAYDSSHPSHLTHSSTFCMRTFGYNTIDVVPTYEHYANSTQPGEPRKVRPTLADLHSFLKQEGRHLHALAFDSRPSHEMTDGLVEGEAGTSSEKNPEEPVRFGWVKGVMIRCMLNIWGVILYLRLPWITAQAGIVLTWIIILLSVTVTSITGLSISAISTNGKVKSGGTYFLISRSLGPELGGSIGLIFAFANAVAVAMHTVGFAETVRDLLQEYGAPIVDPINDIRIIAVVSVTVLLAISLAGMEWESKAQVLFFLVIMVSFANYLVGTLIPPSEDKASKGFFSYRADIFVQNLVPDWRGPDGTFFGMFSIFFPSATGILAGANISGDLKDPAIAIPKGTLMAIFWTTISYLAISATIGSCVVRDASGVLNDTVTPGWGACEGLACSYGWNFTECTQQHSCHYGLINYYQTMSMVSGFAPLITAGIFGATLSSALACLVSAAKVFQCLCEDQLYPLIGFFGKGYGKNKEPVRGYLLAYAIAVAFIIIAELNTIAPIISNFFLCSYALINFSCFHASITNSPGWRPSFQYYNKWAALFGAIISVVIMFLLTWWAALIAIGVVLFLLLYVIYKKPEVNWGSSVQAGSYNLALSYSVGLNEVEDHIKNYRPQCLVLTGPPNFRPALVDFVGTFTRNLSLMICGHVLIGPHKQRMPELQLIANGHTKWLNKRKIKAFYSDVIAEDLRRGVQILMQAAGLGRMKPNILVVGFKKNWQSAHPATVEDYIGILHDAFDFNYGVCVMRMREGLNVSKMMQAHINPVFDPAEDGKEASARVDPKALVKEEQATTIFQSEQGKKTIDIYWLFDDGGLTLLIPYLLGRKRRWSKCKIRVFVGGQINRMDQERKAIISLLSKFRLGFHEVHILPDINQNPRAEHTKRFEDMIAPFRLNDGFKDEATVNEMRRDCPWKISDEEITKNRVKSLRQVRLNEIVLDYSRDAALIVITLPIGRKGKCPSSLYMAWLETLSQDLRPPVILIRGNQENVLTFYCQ
Description: (§1) HEK293S cell lines, cultured in 293 Freestyle medium (Life Technologies; plus 10% fetal bovine serum), stably expressing hNCC and its variants were generated following published protocols. Cells were transfected using Lipofectamine 3000 (Invitrogen) with a pSBbi-RP-based plasmid containing hNCC or its variants and the SB100X vector. Puromycin (2 μg/mL; Gemini Bio-Products) was used for selection of stable cell lines.
(§2) To prepare for the uptake experiment, cells were plated at 0.5 × 10^6 cells/well in 24-well plates one day in advance. To activate NCC, cells were treated with a chloride-free hypotonic solution composed of 67.5 mM sodium-, 2.5 mM potassium-, 0.25 mM magnesium-, and 0.25 mM calcium-gluconate, as well as 7.5 mM HEPES pH 7.4 (buffered using Tris) at 37 °C for 10 min[72]. After the activation step, the experiments were carried out at room temperature. Ten minutes before the start of ^125I^− uptake, 70 μM Bumetanide (Thermo Scientific Chemicals) and 100 μM 4,4′-diisothiocyanatostilbene-2,2′-disulfonic acid (DIDS; Sigma) were added to suppress background iodide uptake activity. Indicated thiazide diuretics were also added to the indicated concentrations 10 min before the start of ^125I^− uptake. The original buffer was switched to an uptake buffer composed of 135 mM Na-gluconate, 5 mM K-gluconate, 1 mM Mg-gluconate, 1 mM Ca-gluconate, 70 μM bumetanide, 100 μM DIDS, 1 mM NaI, 0.25 μCi/ml Na^125I (American Radiolabeled Chemicals, Inc.), and 15 mM HEPES pH 7.4 (buffered using Tris), in the presence or absence of thiazide diuretics to initiate ^125I^− uptake. The ^125I^− uptake process lasted 1 h and was stopped by two rapid washes using ice-cold 110 mM MgCl2. Cells lysed using 1% sodium dodecyl sulfate (SDS) were analyzed by scintillation counting.
(§3) To calculate the fold change of the half-maximal inhibitory concentration (IC50) between hNCC(WT) and different hNCC variants, individual dose-response curves were normalized first using the smallest mean and the value of the lowest concentration as 0% and 100%, respectively. The normalized data were then fitted using the “EC50 shift” nonlinear regression in GraphPad Prism 10 with the shared EC50Control assigned to be the IC50 of hNCC(WT). The following constraints were used in the EC50 shift analysis. The EC50Control was set to be shared across all curves under analysis and constrained to be greater than 0. The EC50Ratio was constrained to be greater than 0. The bottom, top, and HillSlope were constrained to be 0, 100, and −1, respectively. For Fig. 1f, g and Supplementary Fig. 2d, GraphPad Prism 10 was used to perform curve fitting and IC50 calculation for normalized data using y = 100/(1 + (x/IC50)).

hNCC(V231M) = experiment: 125I- uptake assay, hNCC(V231M) variant; assay type: cell-based, human; conditions: V231M polymorphism
Description: as §1, §2, §3

Row | Compound | fold less sensitive than hNCC(WT) (hNCC(G230A)) | IC50 (hNCC(G230A)) | sensitivity relative to hNCC(WT) (fold lower) (hNCC(V231M)) | inhibition of transport activity (hNCC(G230A); 100 μM polythiazide, G230A)
1 | NS(=O)(=O)c1cc(C2(O)NC(=O)c3ccccc32)ccc1Cl (stereo not shown) [chlorthalidone] | approximately 40 fold | 930 nM | 3 fold | 
2 | CC1Cc2ccccc2N1NC(=O)c1ccc(Cl)c(S(N)(=O)=O)c1 (stereo not shown) [indapamide] | ~ 2 fold | 29 nM | 2 fold | 
3 | CN1C(CSCC(F)(F)F)Nc2cc(Cl)c(S(N)(=O)=O)cc2S1(=O)=O (stereo not shown) [polythiazide] | ~ 2 fold | 1.4 nM | nearly as sensitive as the wild-type | fully inhibited
